In patent publication US20240199601A1, “QUINONE COMPOUND AND PHARMACEUTICAL USE THEREOF” (NANJING SHUPENG LIFE SCIENCE CO., LTD., priority 2021, published 2024):

Tests used:
AMPK = AMPK agonist test in RAW264.7 cells (protein hybridization, p-AMPK); assay type: cell-based; details: 0.1 μM, 24 hours
Procedure: (§1) RAW264.7 cells were inoculated into two six-well plates and enabled to grow to a density of about 90%, and SP3101 and SP3102 of different concentrations were added, respectively. 24 hours later, the cells were lysed with a radio immunoprecipitation assay (RIPA) lysis buffer, and the expression of proteins was detected by protein hybridization.
(§2) Phosphorylation of serine at the 127th site of AMPK is used as an activation marker. […] It can be seen that the compounds, represented by the SP3101 and the SP3102, of the present invention are used as an AMPK agonist.

[1] = test system: antioxidant transcription factor (Nrf2); experiment: Nrf2 expression in RAW264.7 cells (protein hybridization); assay type: cell-based; details: different concentrations, 24 hours
Procedure: as §1, §2

[2] = test system: MHV-A59 virus-induced lung inflammation; experiment: MHV-A59 virus-induced lung inflammation of mice; assay type: in vivo, C57BL/B6 mice; details: 20 mg/kg/day by gavage for 5 days
Procedure: As viral pneumonia of C57BL/B6 mice can be induced by nasal dropping of an MHV-A59 virus, the ability of SP3101 to inhibit virus-induced lung inflammation of mice is studied using such model.
An MHV-A59 virus strain was purchased from Suzhou Xishan Biotechnology Co., Ltd. at a PFU/ml of 1.4×10^7.
6-week-old mice were divided into 3 groups with 8 mice in each group. After anesthesia, the mice in a blank control group were administered with normal saline through the noses, and viral pneumonia models of the other two groups were constructed as follows: 10 μL of an MHV was injected into the nose of each mouse at a PFU of 1.4×10^5 with 5 μL into the left nostril and the right nostril, respectively, and about 3-6 hours later, the mice woke up. The mice in a model treatment group were administered with an SP3101 aqueous solution by gavage at a dose of 20 mg/kg body weight/day (mg/kg/day).
After continuous administration for 5 days, the mice were anesthetized and dissected 4 hours after the last administration, and the lungs were taken out, fixed with paraformaldehyde and stored for hematoxylin-eosin (HE) section staining.

[3] = test system: oxaliplatin-induced hyperalgesia; experiment: Oxaliplatin chemotherapy pain model; assay type: in vivo, C57LB6 mice; details: 40 mg/kg by gavage, oxaliplatin 3 mg/kg i.p., mice, Von Frey
Procedure: A total of 30 10-week-old wild male C57LB6 mice were selected.
On DAY 0, the mice were allowed to adapt to the environment for 7 days first, basic mechanical pain thresholds were detected and were basically about 1-1.4 g, and a total of 30 mice were used in this test without abnormal mice.
On DAYS 1-5, the mice were randomly divided into 3 groups including a blank control group (n=10), a model control group (n=10) and an SP3101 group (40 mg/kg, n=10). The mice in the SP3101 group were administrated with an SP3101 aqueous solution by gavage, the mice in the model control group were administrated with double distilled water by gavage, and the mice in the model control group and the SP3101 group were administrated with oxaliplatin (3 mg/kg) by intraperitoneal injection 0.5 hour later. The same operations were continuously performed for 5 days. On DAY 5, the pain thresholds were detected by using Von Frey fibrils.
On DAYS 6-10, the mice were only administered with SP3101 and water by gavage.
On DAYS 11-15, the operations on DAYS 1-5 were repeated, and on DAY 11, the pain thresholds were detected by using Von Frey fibrils.
On DAYS 16-20, the mice were only observed, and on DAY 16 and DAY 20, the mechanical pain thresholds were detected.

[4] = test system: cisplatin-induced hyperalgesia; experiment: Cisplatin chemotherapy pain model; assay type: in vivo, B6 mice; details: 40 mg/kg/day by gavage, cisplatin 2.3 mg/kg/day i.p., mice, Von Frey 0.4 g and 1.0 g
Text: 20 12-week-old male B6 mice were selected and allowed to adapt to the environment for three days.
On DAY 1, basic mechanical pain thresholds were detected by using Von Frey fibrils, the mice with abnormal pain thresholds were abandoned (no abnormal mice were found in this batch), and the pain thresholds were basically about 1.4-2.0 g. According to the basic pain thresholds, a pain threshold of 0.4 g was used in this test, and a pain threshold of 1.0 g was used in subsequent detection Behaviors such as foot lifting and foot licking were identified as positive responses.
On DAYS 1-5, after the basic mechanical pain thresholds were detected, the mice were randomly divided into the following groups: (1) a model control group (n=10) and (2) an SP3101 group (n=10) administered by gavage at a dose of 40 mg/kg/day, where the mice in the model control group were administered with double distilled water by gavage, and the mice in the two groups were administered with cisplatin prepared with normal saline (2.3 mg/kg/day) by intraperitoneal injection 0.5 hour later.
On DAYS 6-10, the mice were only administered with SP3101 and water by gavage, and on DAY 7, the mechanical pain thresholds were detected.
On DAYS 11-15, the operations on DAYS 1-5 were repeated, and on DAY 15, the mechanical pain thresholds were detected. […]

[5] = test system: paclitaxel-induced hyperalgesia; experiment: Paclitaxel chemotherapy pain model; assay type: in vivo, B6 mice; details: 40 mg/kg by gavage once a day for 15 days, paclitaxel 4 mg/kg i.p. x4, mice, Von Frey 0.07 g and 0.4 g
Text: A total of 30 8- to 10-week-old male B6 mice were selected and allowed to adapt to the environment for three days.
On DAY 0, mechanical pain thresholds were detected by using Von Frey fibrils, the mice with abnormal pain thresholds were abandoned, and the basic pain thresholds were basically about 0.6-1.0 g. According to the basic pain thresholds, a pain threshold of 0.07 g was used in this test, and a pain threshold of 0.4 g was used in subsequent detection. Behaviors such as foot lifting and foot licking were identified as positive responses. […] The mice were randomly divided into the following groups: (1) a model control group (PC, n=10), (2) an SP3101 group administered at a dose of 40 mg/kg (n=10) by gavage and (3) a blank control group (NC). The mice in the model control group were administrated with double distilled water by gavage, the mice in the model control group and the SP3101 group were administrated with paclitaxel (4 mg/kg) by intraperitoneal injection 0.5 hour later, and the mice in the blank control group were administrated with normal saline by intraperitoneal injection. […] The first modeling day was determined as DAY 0. […] On DAY 0, 3, 7, 9, 14, 18 and 21, the mechanical pain thresholds were detected.

O=C1C(=O)c2nc(O)cc(C(=O)O)c2-c2[nH]ccc21 [SP3101, 4,5-dioxo-4,5-dihydro-1H-pyrrolo[2,3-f]quinone-7-hydroxy-9-carboxylic acid]
activation of AMPK (expression of p-AMPK) (AMPK): obviously activate the AMPK
expression of antioxidant transcription factor (Nrf2) [1]: increased in a dose-dependent manner
inhibition of virus-induced lung inflammation (HE sections) [2]: obvious effect of inhibiting virus-induced lung inflammation
prevention of oxaliplatin-induced hyperalgesia [3]: obviously prevent oxaliplatin-induced hyperalgesia
alleviation of cisplatin-induced hyperalgesia [4]: obvious effect of alleviating
alleviation of paclitaxel-induced hyperalgesia [5]: obvious effect of alleviating the paclitaxel-induced hyperalgesia
